# Measurements as given in ChEMBL document CHEMBL1201862, “PubChem BioAssay data set” (2004).
#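 Dose response: 5 concentrations. Exposure: 48 h. Format: 96-well plates. Endpoint: linear interpolation; highest concentration if not reached. GI50 = concentration required for 50% inhibition of growth.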 Calls of active or inactive are those of the source. Cut-off read from the data, not from the text of the source: active = GI50 up to about 1.1 µM and inactive = higher.
# Tests used:
# Assay in all cases: NCI tumour cell line growth inhibition, 48 h
# [1] = system: OVCAR-3
# [2] = system: NCI/ADR-RES
# [3] = system: HCT-116
# [4] = system: Hs-578T
# [5] = system: ACHN
# [6] = system: NCI-H23
# [7] = system: LOX IMVI
# [8] = system: PC-3
# [9] = system: IGROV-1
# [10] = system: HCC 2998
# [11] = system: CAKI-1
# [12] = system: COLO 205
# [13] = system: SK-MEL-2
# [14] = system: OVCAR-5
# [15] = system: SR
# [16] = system: A549
# [17] = system: HOP-92
# [18] = system: A498
# [19] = system: 786-0
# [20] = system: MDA-MB-231
# [21] = system: HT-29
# [22] = system: UACC-62
# [23] = system: UO-31
# [24] = system: OVCAR-8
# [25] = system: RPMI-8226
# [26] = system: SNB-19
# [27] = system: UACC-257
# [28] = system: KM12
# [29] = system: DU-145
# [30] = system: EKVX
# [31] = system: HL-60
# [32] = system: HCT-15
# [33] = system: CCRF-CEM
# [34] = system: M14
# [35] = system: MDA-MB-435
# [36] = system: SW-620
# [37] = system: SK-MEL-5
# [38] = system: SK-MEL-28
# [39] = system: SNB-75
# [40] = system: NCI-H226
# [41] = system: BT-549
# [42] = system: TK-10
# [43] = system: HOP-62
# [44] = system: SK-OV-3
# [45] = system: MOLT-4
# [46] = system: T47D
# [47] = system: NCI-H460
# [48] = system: U-251
# [49] = system: OVCAR-4
# [50] = system: SF-268
# [51] = system: Malme-3M
# [52] = system: SF-295
# [53] = system: NCI-H522
# [54] = system: MDA-N
# [55] = system: RXF 393
# [56] = system: SF-539
# [57] = system: MCF7
# [58] = system: SN12C
structure (smiles),measurement,setting,value
O=C(CC(c1ccccc1)C(C(=O)c1ccncc1)C(CC(=O)c1ccncc1)c1ccccc1)c1ccncc1 (stereo unspecified),GI50,[1],75.9 µM (inactive)
same,GI50,[2],49.3 µM (inactive)
same,GI50,[3],> 100 µM (inactive)
same,GI50,[4],30 µM (inactive)
same,GI50,[5],70 µM (inactive)
same,GI50,[6],35 µM (inactive)
same,GI50,[7],> 100 µM (inactive)
same,GI50,[8],46.2 µM (inactive)
same,GI50,[9],28.4 µM (inactive)
same,GI50,[10],> 100 µM (inactive)
same,GI50,[11],> 100 µM (inactive)
same,GI50,[12],> 100 µM (inactive)
same,GI50,[13],78.7 µM (inactive)
same,GI50,[14],> 100 µM (inactive)
same,GI50,[15],> 100 µM (inactive)
same,GI50,[16],26.7 µM (inactive)
same,GI50,[17],48.3 µM (inactive)
same,GI50,[18],71.8 µM (inactive)
same,GI50,[19],68.2 µM (inactive)
same,GI50,[20],31.6 µM (inactive)
same,GI50,[21],> 100 µM (inactive)
same,GI50,[22],86.1 µM (inactive)
same,GI50,[23],> 100 µM (inactive)
same,GI50,[24],35.6 µM (inactive)
same,GI50,[25],> 100 µM (inactive)
same,GI50,[26],39 µM (inactive)
same,GI50,[27],> 100 µM (inactive)
same,GI50,[28],> 100 µM (inactive)
same,GI50,[29],96.6 µM (inactive)
same,GI50,[30],34.6 µM (inactive)
same,GI50,[31],> 100 µM (inactive)
same,GI50,[32],> 100 µM
same,GI50,[33],> 100 µM (inactive)
same,GI50,[34],> 100 µM (inactive)
same,GI50,[35],> 100 µM (inactive)
same,GI50,[36],> 100 µM (inactive)
same,GI50,[37],> 10 µM (inactive)
same,GI50,[38],> 100 µM (inactive)
same,GI50,[39],23.7 µM (inactive)
same,GI50,[40],38.5 µM (inactive)
same,GI50,[41],18.5 µM (inactive)
same,GI50,[42],47.5 µM (inactive)
same,GI50,[43],44.5 µM (inactive)
same,GI50,[44],29.2 µM (inactive)
same,GI50,[45],> 100 µM (inactive)
same,GI50,[46],29.4 µM (inactive)
same,GI50,[47],89.5 µM (inactive)
same,GI50,[48],42.8 µM (inactive)
same,GI50,[49],> 10 µM (inactive)
same,GI50,[50],32.4 µM (inactive)
same,GI50,[51],> 100 µM (inactive)
same,GI50,[52],29.8 µM (inactive)
CC1(C)CC[C@]2(C)CC=C3[C@]4(C)CC[C@H]5C(C)(C)C(=O)CC[C@]5(C)[C@H]4CC[C@@]3(C)[C@H]2C1,GI50,[1],> 100 µM (inactive)
same,GI50,[2],> 100 µM (inactive)
same,GI50,[3],> 100 µM (inactive)
same,GI50,[4],> 100 µM (inactive)
same,GI50,[5],> 100 µM (inactive)
same,GI50,[6],> 100 µM (inactive)
same,GI50,[7],> 100 µM (inactive)
same,GI50,[8],> 100 µM (inactive)
same,GI50,[9],> 100 µM (inactive)
same,GI50,[10],> 100 µM (inactive)
same,GI50,[11],> 100 µM (inactive)
same,GI50,[12],> 100 µM (inactive)
same,GI50,[13],> 100 µM (inactive)
same,GI50,[14],> 100 µM (inactive)
same,GI50,[53],> 100 µM (inactive)
same,GI50,[15],> 100 µM (inactive)
same,GI50,[16],> 100 µM (inactive)
same,GI50,[17],> 100 µM (inactive)
same,GI50,[18],> 100 µM (inactive)
same,GI50,[19],> 100 µM (inactive)
same,GI50,[20],> 100 µM (inactive)
same,GI50,[21],> 100 µM (inactive)
same,GI50,[22],> 100 µM (inactive)
same,GI50,[23],> 100 µM (inactive)
same,GI50,[24],> 100 µM (inactive)
same,GI50,[25],> 100 µM (inactive)
same,GI50,[26],> 100 µM (inactive)
same,GI50,[54],> 100 µM (inactive)
same,GI50,[27],> 100 µM (inactive)
same,GI50,[28],> 100 µM (inactive)
same,GI50,[55],> 100 µM (inactive)
same,GI50,[29],> 100 µM (inactive)
same,GI50,[30],> 100 µM (inactive)
same,GI50,[32],> 100 µM
same,GI50,[33],> 100 µM (inactive)
same,GI50,[34],> 100 µM (inactive)
same,GI50,[56],> 100 µM (inactive)
same,GI50,[35],> 100 µM (inactive)
same,GI50,[36],> 100 µM (inactive)
same,GI50,[37],> 100 µM (inactive)
same,GI50,[38],> 100 µM (inactive)
same,GI50,[40],> 100 µM (inactive)
same,GI50,[57],> 100 µM (inactive)
same,GI50,[42],> 100 µM (inactive)
same,GI50,[43],> 100 µM (inactive)
same,GI50,[44],> 100 µM (inactive)
same,GI50,[45],> 100 µM (inactive)
same,GI50,[46],> 100 µM (inactive)
same,GI50,[48],> 100 µM (inactive)
same,GI50,[49],> 100 µM (inactive)
same,GI50,[50],> 100 µM (inactive)
same,GI50,[51],> 100 µM (inactive)
same,GI50,[58],> 100 µM (inactive)
same,GI50,[52],> 100 µM (inactive)
